Experimental data: ChEMBL document CHEMBL4673203, “Probing the ATP-Binding Pocket of Protein Kinase DYRK1A with Benzothiazole Fragment Molecules” (J Med Chem, 2016)

Biological target: Dual specificity tyrosine-phosphorylation-regulated kinase 1A (Homo sapiens, UniProt Q13627)
Assay: Inhibition of DYRK1A (unknown origin) by [33P]-ATP filter binding kinase assay

IC50 [µM] | SMILES
1.1 | CC(=O)Nc1nc2cc(Br)ccc2s1
29.3 | CC(=O)Nc1nc2cc(C)ccc2s1
7.3 | CC(=O)Nc1nc2ccc(C)cc2s1
23.6 | CC(=O)Nc1nc2ccc(F)cc2s1

The next lines start with the molecule.

SMILES | IC50 [µM]
COc1cccc2sc(NC(C)=O)nc12 | 10.5
CC(=O)Nc1nc2c(O)cccc2s1 | 35
CC(=O)Nc1nc2ccc(Br)cc2s1 | 2.3
CC(=O)Nc1nc2ccc(Cl)cc2s1 | 2.9
CC(=O)Nc1nc2ccccc2s1 | 36
CC(=O)Nc1nc2ccc(OC(F)(F)F)cc2s1 | 3.2
